Test system: T1, Horseradish peroxidase (HRP); soluble-HRP
T1 construct: gene PRXC1A; class III plant peroxidase
Assay: peroxidase assay, absorbance at […] nm, Lineweaver-Burk plot
Type: biochemical, Armoracia rusticana
Settings: free soluble enzyme; co-substrate H2O2 (8 mM in the standard assay); 20 mM sodium acetate pH 5.5; temperature not stated

- Km: 35.7 mM
Structure (SMILES): COc1ccccc1O [guaiacol]

— paper PMC10791668, “Development of chia gum/alginate-polymer support for horseradish peroxidase immobilization and its application in phenolic removal” (Scientific Reports, 2024)
